Patent US7960543B2, “Nucleoside or nucleotide derivative and use thereof” (RIKEN, priority 2004, dated 2011)
“And” between values parts separate entries of the source, which are not always exact repeats. Equal values may be shown once. Read-outs that look alike come from different tables or passages of the source.

Experiments:
[1] = for Quantum yield: pH 7.0 aqueous solution, standard fluorescein in 0.1 N NaOH, φs=0.90; for Emission maxima: excited at the wavelength printed in the cell (493, 553 or 320 nm), pH 7.0, 25° C.
Protocol: A 3×3 mm cell was used for measurement, and the following settings were used to measure each spectrum: response 1.0 s, sensitivity low, and slit width fixed at 3 nm for both excitation and fluorescence sides.
The quantum yield (φ) was calculated according to the following equation and fluorescein (1.0 μM in 0.1 N NaOH, φs=0.90) was used as a standard. φ=(F·As·η^2·φs)/(A·Fs·η0^2)
F: Area of each fluorescence spectrum
A: Absorbance at the excitation wavelength
η: Refractive index (water: 1.33)

T7 RNA polymerase [2] = target: T1, T7 RNA polymerase (Escherichia phage T7, UniProt P00573); conditions: compared to transcription using the natural template and substrates only; 1 mM modified yTP, 37° C., 3 hours
T1 sequence (P00573 whole entry): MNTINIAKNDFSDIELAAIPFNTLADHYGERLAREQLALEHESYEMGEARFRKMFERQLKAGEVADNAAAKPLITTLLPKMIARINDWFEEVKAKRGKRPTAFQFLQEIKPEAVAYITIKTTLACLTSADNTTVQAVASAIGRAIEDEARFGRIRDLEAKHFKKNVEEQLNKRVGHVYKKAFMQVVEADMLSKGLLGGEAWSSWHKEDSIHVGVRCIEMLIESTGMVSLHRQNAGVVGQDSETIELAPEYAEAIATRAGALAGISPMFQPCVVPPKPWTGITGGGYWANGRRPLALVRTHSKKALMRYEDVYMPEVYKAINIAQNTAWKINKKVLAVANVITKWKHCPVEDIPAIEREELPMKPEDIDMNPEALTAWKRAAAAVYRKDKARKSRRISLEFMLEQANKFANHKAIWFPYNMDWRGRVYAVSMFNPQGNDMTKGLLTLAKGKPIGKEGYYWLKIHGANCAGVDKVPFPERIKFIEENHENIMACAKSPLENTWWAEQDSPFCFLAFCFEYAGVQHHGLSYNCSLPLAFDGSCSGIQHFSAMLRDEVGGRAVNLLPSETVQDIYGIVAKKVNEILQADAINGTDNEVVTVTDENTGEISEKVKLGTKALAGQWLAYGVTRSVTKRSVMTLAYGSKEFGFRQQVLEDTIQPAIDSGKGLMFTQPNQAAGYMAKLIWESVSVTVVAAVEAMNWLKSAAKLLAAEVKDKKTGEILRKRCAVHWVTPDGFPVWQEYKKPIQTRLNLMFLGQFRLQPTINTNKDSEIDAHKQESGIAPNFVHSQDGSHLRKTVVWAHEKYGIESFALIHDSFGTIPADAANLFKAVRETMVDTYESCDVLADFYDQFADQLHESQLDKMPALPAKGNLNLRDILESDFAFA
Protocol: More specifically, double-stranded template DNA (10 μM) was annealed in 10 mM Tris-HCl buffer (pH 7.6) containing 10 mM NaCl under the following conditions: 95° C. for 3 minutes→50° C. for 3 minutes→slow cooling to 4° C. T7 transcription reaction was accomplished in a reaction solution (20 μl) containing 40 mM Tris-HCl buffer (pH 8.0), 24 mM MgCl2, 2 mM spermidine, 5 mM DTT, 0.01% Triton X-100, 2 μCi [y-^32P]GTP, 1 mM NTPs, 1 mM modified yTP, 2 μM template DNA, and 50 units of T7 RNA polymerase (Takara).
The template DNA used was a duplex formed between T7 promoter-containing 35-mer template strand and T7 promoter non-template strand 21-mer, which has been modified to have s or v introduced at a single position within the template.
where N(5)=v (the present invention), s (the present invention) or A (control)
where N′(13)=NH2-y, FAM-y or TAMRA-y
The modified substrate was added in the same amount as the natural substrates and reacted at 37° C. for 3 hours, followed by addition of an electrophoresis dye solution (20 μl) containing 10 M urea to stop the reaction. The reaction solution was heated at 75° C. for 3 minutes and then electrophoresed on a 20% polyacrylamide-7 M urea gel. The transcripts were analyzed with a bio-imaging analyzer.

T7 RNA polymerase [3] = target: T1, T7 RNA polymerase; conditions: RNA 17-mer transcript, RNase T2 digest, [α-32P]ATP
Protocol: The same T7 RNA polymerase-mediated transcription reaction as shown in Example 11 was performed in a reaction solution containing 40 mM Tris-HCl buffer (pH 8.0), 24 mM MgCl2, 2 mM spermidine, 5 mM DTT, 0.01% Triton X-100, 2 μCi [α-^32P]ATP, 1 mM NTPs, 1 mM modified-yTP, 2 μM template DNA, and 50 units of T7 RNA polymerase (Takara). After electrophoresis on a 15% polyacrylamide-7 M urea gel, the transcript was eluted from the gel and collected by ethanol precipitation in the presence of tRNA (0.25 OD).
To this tRNA-containing solution (8.5 μl), RNase T2 (1.5 μl, 1 unit/μl) was added and reacted overnight at 37° C. 0.3 μl of this solution was spotted on a TLC plate (Merck, 10 cm×10 cm) and developed two-dimensionally. As a developing solution, isobutyric acid:concentrated aqueous ammonia:water=66:1:33 (v/v/v) was used for the first dimension and 2-propanol:hydrochloric acid:water=65:10:25 (v/v/v) was used for the second dimension. The developed spots were detected and analyzed with a bio-imaging analyzer.

[4] = 1.0 μM in 10 mM sodium phosphate buffer (pH 7.0), 25° C.

SMILES	Absorption maxima ([1]; pH 7)	ε at absorption maximum ([1]; pH 7)	Quantum yield [1]	yield of RNA incorporating the modified substrate (T7 RNA polymerase [2])	incorporation opposite v in the template (T7 RNA polymerase [3])	Absorption maxima [1, 4]	Emission maxima [1]	ε at absorption maximum [1, 4]
CN(C)c1ccc2c(-c3cc(C(=O)NCCCCCC(=O)NCC#Cc4c[nH]c(=O)c([C@@H]5O[C@H](COP(=O)(O)OP(=O)(O)OP(=O)(O)O)[C@@H](O)[C@H]5O)c4)ccc3C(=O)[O-])c3ccc(N(C)C)cc3[o+]c2c1 [TAMRA-yTP, 3-(β-D-ribofuranosyl)-5-[3-[6-(tetramethylrhodamine-5-carboxamido)hexanamido]-1-propynyl]-2-oxo(1H)pyridine 5′-triphosphate]	553 nm and 553 (ε 85,000) nm	553 (ε 85,000)	0.50	61%	–	–	–	–
NCCCCCC(=O)NCC#Cc1c[nH]c(=O)c([C@@H]2O[C@H](COP(=O)(O)OP(=O)(O)OP(=O)(O)O)[C@@H](O)[C@H]2O)c1 [NH2-yTP, 3-(β-D-ribofuranosyl)-5-[3-(6-aminohexanamido)-1-propynyl]-2-oxo(1H)pyridine 5′-triphosphate]	–	–	–	same yield	specific incorporation	–	–	–
CN(C)c1cccc2c(S(=O)(=O)NCCCCCC(=O)NCCCCCC(=O)NCC#Cc3c[nH]c(=O)c([C@@H]4O[C@H](COP(=O)(O)OP(=O)(O)OP(=O)(O)O)[C@@H](O)[C@H]4O)c3)cccc12 [Dansyl-x-yTP, 3-(β-D-ribofuranosyl)-5-[3-[6-[6-[(5-dimethylaminonaphthalene-1-sulfonyl)amino]hexanamido]hexanamido]-1-propynyl]-2-oxo(1H)pyridine 5′-triphosphate]	–	–	0.014	–	–	319 nm and 252 nm	387 nm and 541 nm	–
O=C(CCCCCNC(=O)c1ccc2c(c1)C(=O)OC21c2ccc(O)cc2Oc2cc(O)ccc21)NCC#Cc1c[nH]c(=O)c([C@@H]2O[C@H](COP(=O)(O)OP(=O)(O)OP(=O)(O)O)[C@@H](O)[C@H]2O)c1 [FAM-yTP, 3-(β-D-ribofuranosyl)-5-[3-[6-(fluorescein-5-carboxamido)hexanamido]-1-propynyl]-2-oxo(1H)pyridine 5′-triphosphate]	–	–	0.55	76%	–	493 nm	–	62,000
O=C(NCC#Cc1c[nH]c(=O)c([C@@H]2O[C@H](COP(=O)(O)OP(=O)(O)OP(=O)(O)O)[C@@H](O)[C@H]2O)c1)c1ccc2c(c1)C(=O)OC21c2ccc(O)cc2Oc2cc(O)ccc21 [short FAM-yTP, 3-(β-D-ribofuranosyl)-5-[3-(fluorescein-5-carboxamido)-1-propynyl]-2-oxo(1H)pyridine 5′-triphosphate]	–	–	0.67	–	–	493 nm	521 (excited at 493 nm)	70,000
